According to the supplement of paper PMC11061612:

What was measured:
[1] = system: RVH-421 (Melanoma); test: combination Emax (second highest fraction inhibited in the dose matrix, 72 h); higher = more inhibition; extreme values may be limits of the assay
Method in brief: (§1)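 Cell lines grown in DMEM/F12 or RPMI with 10% FBS were plated in 1536-well plates and held 24 hours at 37°C, 5% CO2 before 72 hours of exposure to two-drug dose matrices, with DMSO typically at 0.2%. CellTiter-Glo 2.0 luminescence gave viability, which was converted to inhibition. Vehicle wells were set to 0 and blank wells to 1. Combination Emax is the second-highest inhibition in the matrix, and Bliss excess is the observed combination effect minus the expected EA + EB − EA·EB, where EA and EB are the single-agent effects.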

[2] = system: CAL-85-1 (Breast Carcinoma); test: Bliss excess, mean over the matrix (fraction); higher = more synergy
Method in brief: as §1

[3] = system: NCI-H2009 (Lung Adenocarcinoma); test: as above
Method in brief: as §1

[4] = system: NCI-H1048 (Small Cell Lung Carcinoma); test: as above
Method in brief: as §1

[5] = system: A375 (Melanoma); test: as above
Method in brief: as §1

[6] = system: RVH-421 (Melanoma); test: as above
Method in brief: as §1

[7] = system: GRANTA-519 (B-Cell Non-Hodgkin's Lymphoma); test: as above
Method in brief: as §1

[8] = system: JJN-3 (Plasma Cell Myeloma); test: as above
Method in brief: as §1

[9] = system: SNU-1 (Gastric Carcinoma); test: as above
Method in brief: as §1

[10] = system: COR-L105 (Lung Adenocarcinoma); test: as above
Method in brief: as §1

[11] = system: C2BBe1 (Colorectal Carcinoma); test: as above
Method in brief: as §1

[12] = system: MRK-nu-1 (Breast Carcinoma); test: as above
Method in brief: as §1

[13] = system: TOV-21G (Ovarian Carcinoma); test: as above
Method in brief: as §1

[14] = system: L-363 (Plasma Cell Myeloma); test: as above
Method in brief: as §1

[15] = system: NCI-H2452 (Mesothelioma); test: as above
Method in brief: as §1

[16] = system: JURL-MK1 (Chronic Myelogenous Leukemia); test: as above
Method in brief: as §1

[17] = system: HT-144 (Melanoma); test: as above
Method in brief: as §1

[18] = system: NCI-H835 (Other Solid Carcinomas); test: as above
Method in brief: as §1
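Wherever Bliss excess, mean over the matrix is given: after 72 h of two-drug dosing.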

| SMILES | combination Emax [1] | Bliss excess [2] | Bliss excess [3] | Bliss excess [4] | Bliss excess [5] | Bliss excess [6] | Bliss excess [7] | Bliss excess [8] | Bliss excess [9] | Bliss excess [10] | Bliss excess [11] | Bliss excess [12] | Bliss excess [13] | Bliss excess [14] | Bliss excess [15] | Bliss excess [16] | Bliss excess [17] | Bliss excess [18] |
| --- | --- | --- | --- | --- | --- | --- | --- | --- | --- | --- | --- | --- | --- | --- | --- | --- | --- | --- |
| Cc1c2c(nn1C)CSCc1cc(n(C)n1)CSc1cc(c3ccccc3c1)OCCCc1c(C(=O)O)n(C)c3c-2c(Cl)ccc13 [AZD5991] + Cn1cnc2c(F)c(Nc3ccc(Br)cc3Cl)c(C(=O)NOCCO)cc21 [Selumetinib] (first compound max 1 µM, 7x7, partner max 3 µM) | 0.449 | -0.0162 | 0.0176 | -0.0224 | 0.0086 | -0.0194 | -0.0162 | 0.0114 | 0.0926 | -0.0263 | -0.0033 | 0.0052 | 0.0121 | 0.0099 | 0.0633 | 0.0259 | 0.01 |  |
| C[C@@H]1COCCN1c1cc(C2([S@](C)(=N)=O)CC2)nc(-c2ccnc3[nH]ccc23)n1 [AZD6738] + O=C(c1cc(Cc2n[nH]c(=O)c3ccccc23)ccc1F)N1CCN(C(=O)C2CC2)CC1 [Olaparib] (first compound max 10 µM, 7x7, partner max 10 µM) | 0.215 | -0.0003 | 0.0046 | 0.0581 | 0.0238 | -0.0324 | -0.0308 | -0.0548 | -0.0358 | -0.0435 | 0.0009 | 0.0457 | 0.0035 | -0.0892 | -0.0415 | -0.021 | 0.0461 |  |
| COc1cccc2c1C(=O)c1c(O)c3c(c(O)c1C2=O)C[C@@](O)(C(=O)CO)C[C@@H]3O[C@H]1C[C@H](N)[C@H](O)[C@H](C)O1 [Doxorubicin] + Cc1cc2ncnn2cc1Nc1ncc2c(n1)n(C1CCOCC1)c(=O)n2C [AZD7648] (first compound max 1 µM, 7x7, partner max 10 µM) | 0.404 | 0.0095 | 0.0653 | 0.0539 | 0.09 | 0.0105 | 0.102 | 0.0238 | 0.0667 | 0.022 | -0.0082 | 0.0157 | 0.0091 | 0.0622 | 0.0928 | 0.0792 | 0.0302 | 0.0207 |
| COc1cccc(OCCCN)c1-c1cc(Nc2cnc(C#N)cn2)n[nH]1 [Prexasertib] + C=CCn1c(=O)c2cnc(Nc3ccc(N4CCN(C)CC4)cc3)nc2n1-c1cccc(C(C)(C)O)n1 [AZD1775] (first compound max 1 µM, partner max 1 µM) | 0.341 | 0.124 | 0.0914 | 0.101 | 0.0888 | -0.0524 | -0.0138 | 0.085 | 0.084 | 0.0157 | 0.0545 | 0.211 | -0.0089 | 0.0204 | 0.0473 | 0.0271 | 0.0666 | 0.105 |
| CCc1c2c(nc3ccc(O)cc13)-c1cc3c(c(=O)n1C2)COC(=O)[C@]3(O)CC [SN-38] + O=C(c1cc(Cc2n[nH]c(=O)c3ccccc23)ccc1F)N1CCN(C(=O)C2CC2)CC1 [Olaparib] (first compound max 0.3 µM, 7x7, partner max 10 µM) | 0.265 | 0.059 | 0.14 | 0.0934 | 0.0588 | -0.0041 |  | 0.0187 | 0.0064 | -0.022 |  | 0.0478 |  | 0.0309 | 0.0422 | 0.0401 |  | 0.017 |
| CC(=O)Nc1cccc(-n2c(=O)n(C3CC3)c(=O)c3c(Nc4ccc(I)cc4F)n(C)c(=O)c(C)c32)c1 [Trametinib] + Cc1nc(-c2cn3c(n2)-c2ccc(-c4cnn(C(C)(C)C(N)=O)c4)cc2OCC3)n(C(C)C)n1 [Taselisib] (first compound max 1 µM, 7x7, partner max 10 µM) | 0.638 | 0.213 | 0.151 | 0.245 | 0.0783 | 0.0732 | -0.0007 | 0.204 | 0.202 | 0.0409 | 0.0464 | 0.0116 | -0.051 | 0.241 | 0.101 | -0.0107 | 0.0234 |  |
| CC1(C)CCC(CN2CCN(c3ccc(C(=O)NS(=O)(=O)c4ccc(NCC5CCOCC5)c([N+](=O)[O-])c4)c(Oc4cnc5[nH]ccc5c4)c3)CC2)=C(c2ccc(Cl)cc2)C1 [Venetoclax] + C1CN(CCC1(C(=O)N[C@@H](CCO)C2=CC=C(C=C2)Cl)N)C3=NC=NC4=C3C=CN4 [Capivasertib] (first compound max 1 µM, 7x7, partner max 3 µM) | 0.351 | -0.031 | -0.0299 | 0.0124 | -0.0463 | -0.0471 | 0.0036 | -0.0035 | -0.0535 | -0.0664 | -0.0585 | -0.0212 | -0.0533 | 0.0096 | -0.0318 | -0.0259 | -0.0575 |  |
| CC1(C)CCC(CN2CCN(c3ccc(C(=O)NS(=O)(=O)c4ccc(NCC5CCOCC5)c([N+](=O)[O-])c4)c(Oc4cnc5[nH]ccc5c4)c3)CC2)=C(c2ccc(Cl)cc2)C1 [Venetoclax] + C=CCn1c(=O)c2cnc(Nc3ccc(N4CCN(C)CC4)cc3)nc2n1-c1cccc(C(C)(C)O)n1 [AZD1775] (first compound max 1 µM, partner max 1 µM) | 0.183 | -0.0334 | -0.0212 | 0.0212 | -0.0142 | -0.0875 | 0.0734 | -0.0187 | -0.0156 | -0.0095 | 0.0124 | -0.0341 | -0.0261 | 0.0933 | 0.0036 | -0.0214 | -0.0314 |  |
| CC1(C)CCC(CN2CCN(c3ccc(C(=O)NS(=O)(=O)c4ccc(NCC5CCOCC5)c([N+](=O)[O-])c4)c(Oc4cnc5[nH]ccc5c4)c3)CC2)=C(c2ccc(Cl)cc2)C1 [Venetoclax] + CCN(CCO)CCCOc1ccc2c(Nc3cc(CC(=O)Nc4cccc(F)c4)[nH]n3)ncnc2c1 [AZD2811] (first compound max 1 µM, 7x7, partner max 1 µM) | 0.164 | -0.032 | -0.035 | 0.103 | -0.0095 | -0.0636 | 0.234 | 0.169 | 0.0266 | -0.0608 | -0.0368 | 0.0341 | 0.0149 | 0.0141 | 0.0268 | 0.0208 | -0.0132 |  |
| CC1(C)CCC(CN2CCN(c3ccc(C(=O)NS(=O)(=O)c4ccc(NCC5CCOCC5)c([N+](=O)[O-])c4)c(Oc4cnc5[nH]ccc5c4)c3)CC2)=C(c2ccc(Cl)cc2)C1 [Venetoclax] + CN(C)CCCOc1ccc(-c2ccc3ncc4c(c3c2)n(C2CCOCC2)c(=O)n4C)cn1 [AZD0156] (first compound max 1 µM, 7x7, partner max 1 µM) | 0.16 | -0.0476 | -0.0283 | 0.0016 | -0.003 | -0.0658 | 0.0334 | 0.0008 | -0.0069 | -0.0408 | -0.0333 | 0.0046 | -0.0322 | 0.0188 | -0.0149 | -0.0151 | 0.0366 |  |
| CC1(C)CCC(CN2CCN(c3ccc(C(=O)NS(=O)(=O)c4ccc(NCC5CCOCC5)c([N+](=O)[O-])c4)c(Oc4cnc5[nH]ccc5c4)c3)CC2)=C(c2ccc(Cl)cc2)C1 [Venetoclax] + COc1cc(Nc2ncc3c(n2)-c2ccc(Cl)cc2C(c2c(F)cccc2OC)=NC3)ccc1C(=O)O [Alisertib] (first compound max 1 µM, 7x7, partner max 10 µM) | 0.0752 | -0.007 | 0.0023 | 0.0987 | 0.0294 | -0.058 | 0.438 | 0.45 | -0.0103 | -0.0741 | -0.0271 | 0.129 | -0.006 | -0.0115 | 0.0053 | -0.0542 | 0.0089 |  |
| CC1(C)CCC(CN2CCN(c3ccc(C(=O)NS(=O)(=O)c4ccc(NCC5CCOCC5)c([N+](=O)[O-])c4)c(Oc4cnc5[nH]ccc5c4)c3)CC2)=C(c2ccc(Cl)cc2)C1 [Venetoclax] + C[C@@H]1COCCN1C2=NC(=NC(=C2)C3(CC3)[S@](=N)(=O)C)C4=C5C=CNC5=NC=C4 [AZD6738] (first compound max 1 µM, 7x7, partner max 10 µM) | 0.26 | -0.0195 | -0.0357 | 0.0276 | -0.0308 | -0.0286 | 0.0342 | 0.067 | -0.0114 | -0.0429 | -0.0092 | -0.0003 | -0.0256 | 0.0331 | -0.0034 | 0.0005 | 0.0378 |  |
| CC1(C)CCC(CN2CCN(c3ccc(C(=O)NS(=O)(=O)c4ccc(NCC5CCOCC5)c([N+](=O)[O-])c4)c(Oc4cnc5[nH]ccc5c4)c3)CC2)=C(c2ccc(Cl)cc2)C1 [Venetoclax] + C[C@@H](Nc1cc(F)cc(F)c1)c1cc(C(=O)N(C)C)cc2c(=O)cc(N3CCOCC3)oc12 [AZD8186] (first compound max 1 µM, 7x7, partner max 3 µM) | 0.326 | -0.055 | -0.0281 | 0.018 | -0.0326 | -0.0084 | 0.0281 | -0.0092 | -0.0157 | -0.0359 | -0.135 | -0.0165 | -0.0271 | -0.001 | 0.0255 | -0.0201 | -0.0295 |  |
| CC1(C)CCC(CN2CCN(c3ccc(C(=O)NS(=O)(=O)c4ccc(NCC5CCOCC5)c([N+](=O)[O-])c4)c(Oc4cnc5[nH]ccc5c4)c3)CC2)=C(c2ccc(Cl)cc2)C1 [Venetoclax] + Cc1cc2ncnn2cc1Nc1ncc2c(n1)n(C1CCOCC1)c(=O)n2C [AZD7648] (first compound max 1 µM, 7x7, partner max 10 µM) | 0.221 | -0.0251 | -0.053 | 0.0067 | -0.0301 | -0.0443 | 0.0007 | 0.0741 | -0.0408 | -0.0512 | -0.0132 | 0.0037 | -0.002 | 0.0281 | -0.0388 | -0.0068 | -0.0798 |  |
| CC1(C)CCC(CN2CCN(c3ccc(C(=O)NS(=O)(=O)c4ccc(NCC5CCOCC5)c([N+](=O)[O-])c4)c(Oc4cnc5[nH]ccc5c4)c3)CC2)=C(c2ccc(Cl)cc2)C1 [Venetoclax] + Cn1cnc2c(F)c(Nc3ccc(Br)cc3Cl)c(C(=O)NOCCO)cc21 [Selumetinib] (first compound max 1 µM, 7x7, partner max 3 µM) | 0.385 | -0.0368 | -0.024 | -0.0067 | -0.0437 | -0.0317 | -0.03 | 0.0473 | -0.0541 | -0.0491 | -0.102 | -0.0139 | 0.0133 | 0.0023 | -0.0501 | -0.0249 | -0.0616 |  |
